Experimental findings from publication PMC6108835, “Target-Based Discovery of an Inhibitor of the Regulatory Phosphatase PPP1R15B” (Cell, 2018) are described below.

Data set [1] relates to eIF2α phosphorylation (HeLa cells). As to the kind of experiment: Protein analyses on immunoblots, HeLa cells. The format is cell-based, human. The following applies: for eIF2α phosphorylation: 0-10 h. How it is done: (§1) HeLa or MEF cells (90,000 cells/mL) were plated in 12-well plates (1 mL/well). The following day cells were treated as indicated; the medium was removed, fresh medium containing compound added and incubated at 37°C for the times indicated. The time course was performed in reverse order to facilitate collecting all samples at the same time. At the end of treatment cells were washed two times with ice-cold PBS and lysed in 150 μL Laemmli Buffer. Lysates were transferred to 1.5 mL eppendorf tubes, boiled at 95°C for 5 min, sonicated and resolved on Bolt SDS-PAGE 4%–12% Bis-Tris gels (ThermoFisher Scientific). Proteins were transferred to the nitrocellulose membrane using the iBlot 2 system (ThermoFisher Scientific). Membrane was blocked in 5% skimmed milk for 30 min and then probed with primary antibodies followed by incubation with the appropriate horseradish peroxidase-conjugated secondary antibodies (Promega). Proteins were visualized using ECL Prime (GE Healthcare) and imaged in the Chemi-Smart 5000 (Vilber-Lourmat, France) or ChemiDoc Touch (BioRad). Bands were quantified using ImageJ (NIH, USA). The following primary antibodies were used: e-IF2α-P (ThermoFisher Scientific (#44-728G), 1:1,000), e-IF2α (Abcam (#ab5369), 1:1,000), tubulin (Sigma-Aldrich (#T5168), 1:4,000), BiP (BD Biosciences PharMingen (#610978), 1:1,000), ATF4 (Santa Cruz Biotechnology (#sc-200), 1:500), Ppp1r15a (Proteintech (#10449-1-AP), 1:1,000), Ppp1r15b (Proteintech (#14634-1-AP), 1:1,000) and CHOP (ABR Affinity BioReagents (#MA1-250), 1:1,000).
(In western blotting, separated proteins are transferred to a membrane and probed.)

Another data set has as its target T1, R15B^340–698 (Homo sapiens, UniProt Q5SWA1).
T1 construct: made in house; host or cells: E. coli BL21-Gold (DE3) pLysS
Nature of the data set: eIF2α pull down with MBP-tagged R15B. In kind it is biochemical. The conditions noted are these: Raphin1 200 μM, P-eIF2α 1 μM. How it is done:
Recombinant eIF2α was produced as described in [Ito et al. (2004)] and pull down experiments were carried out as previously described ([Carrara et al., 2017]). Amylose beads (New England BioLabs) were pre-equilibrated with interaction buffer (50 mM Tris pH 7.4, 200 mM NaCl, 0.05% Tween20). 20 μL amylose beads were incubated with purified MBP-tagged R15s (200 nM), P-eIF2α (1 μM) as appropriate, plus 200 μM Raphin1, or DMSO vehicle in a total volume of 200 μL. Input samples (5%) was removed at this step, and added to 4% SDS-Laemmli sample buffer. Beads were incubated for 10 min at 4°C with 20 rpm gentle rotation. The beads were washed 5 × 1 mL with interaction buffer, transferred to a fresh tube and finally resuspended with 50 μL 4% SDS-Laemmli sample buffer. Eluded beads were boiled and then run on 4%–12% NuPAGE Bis-Tris gels (ThermoFisher Scientific). Anti-MBP HRP (New England BioLabs (#E8038); 1:5,000) (to probe for R15s) and anti-eIF2α (AbCam (#ab26197); 1:1,000) antibodies were used for immunoblotting analyses of samples.

A short description of data set [2]: Pharmacokinetics after single oral administration in mice. The conditions noted are these: mouse. In kind it is in vivo. As for the experimental part:
(§2) The acetate salts of Raphin1 or GBZ were dissolved in water and sonicated for 10 min. The solution was aliquoted and kept at −20°C until use. Once thawed a tube was kept at 4°C and used within 24 hr. The compounds were administered by oral gavage.
(§3) Raphin1 was administered at 2 mg/kg (unless otherwise specified). Mice received a single dose or were treated chronically – one time per day. Control mice were treated with vehicle (water) only.
Pharmacokinetics studies were performed by XenoGesis Ldt. Raphin1 was administrated orally in 6 weeks old treatment- and test-naive C57BL/6J males. Plasma samples were prepared by protein precipitation with methanol containing internal standards. Tissues were weighed and prepared by homogenization (1:3 in phosphate buffered saline) and protein precipitated with methanol containing internal standard. Following the addition of methanol, plasma and tissue samples were placed at −20°C for ≥ 1 hr (or overnight) to allow proteins to precipitate. The samples were then centrifuged at 2,500 x g (3,400 rpm) for 20 min at 4°C. The supernatants were analyzed by LC-MS/MS.

Data set [3] in a line: Body weight gain of wild-type mice under chronic treatment. The format is in vivo, mouse. The conditions noted are these: various doses once a day (2 mg/kg for 10 weeks; 15 days at indicated doses). How it is done:
as §2, §3
Mice were weighted on a dedicated scale (A&D, FX3000iWP). 4 weeks old treatment and test naive C57BL/6J males and females (Figure 6B) and 2 months old treatment and test naive C3H/B6 males (Figure S6A) were used.

The subject of the next data set is brains of wild-type mice. As to the kind of experiment: Monitoring translation rates in vivo, brains of wild-type mice. More on the design: species or system mouse. The following applies: 40 mg/kg. How it is done: 3 months old treatment- and test-naive C57BL/6J males were treated as indicated. 30 min before the end of treatment mice were injected intraperitoneally with 0.75 mCi/kg radioactive label – 75% ^35S-methionine + 25% ^35S-cystine (Hartmann Analytic). At the end of treatment mice were culled by cervical dislocation, brains were extracted, fresh-frozen in liquid nitrogen and kept at −80°C until use. Tissue was homogenized and lysed in Laemmli Buffer (1 mL for 0.5 mg tissue). Lysates were boiled at 95°C for 5 min, sonicated and resolved on Bolt SDS-PAGE 4%–12% Bis-Tris gels (ThermoFisher Scientific). Gels were then stained with InstantBlue (Expedeon) and after the gels had been imaged they were transferred to a 20% ethanol, 7% acetic acid, 4% glycerol solution for 10 min. This was to prevent the gels from cracking while drying. The gels were transferred to filter paper and dried using a gel dryer. The gels were then exposed to a Storage Phosphor Screen (GE Healthcare) and analyzed by phosphorimaging using a Typhoon Imager Scanner (GE Healthcare).

A further data set has as its target R15A (Homo sapiens, UniProt O75807). Nature of the data set: R15A levels on immunoblots of HeLa cell lysates. In kind it is cell-based. Also on record: endogenous in cells; host or cells: HeLa. The conditions noted are these: HeLa cells, Raphin1 10 μM. How it is done: as §1, with “The following primary antibodies were used: e-IF2α-P (ThermoFisher Scientific (#44-728G), 1:1,000), e-IF2α (Abcam (#ab5369), 1:1,000), tubulin (Sigma-Aldrich (#T5168), 1:4,000), BiP (BD Biosciences PharMingen (#610978), 1:1,000), ATF4 (Santa Cruz Biotechnology (#sc-200), 1:500), Ppp1r15a (Proteintech (#10449-1-AP), 1:1,000), Ppp1r15b (Proteintech (#14634-1-AP), 1:1,000) and CHOP (ABR Affinity BioReagents (#MA1-250), 1:1,000).” left out

Another data set addresses PP1c (Homo sapiens, UniProt P36873). As to the kind of experiment: PP1c catalytic activity assay (DiFMUP, EnzChek). The conditions noted are these: his-PP1c 30 nM.

T1 sequence (Q5SWA1 340-698): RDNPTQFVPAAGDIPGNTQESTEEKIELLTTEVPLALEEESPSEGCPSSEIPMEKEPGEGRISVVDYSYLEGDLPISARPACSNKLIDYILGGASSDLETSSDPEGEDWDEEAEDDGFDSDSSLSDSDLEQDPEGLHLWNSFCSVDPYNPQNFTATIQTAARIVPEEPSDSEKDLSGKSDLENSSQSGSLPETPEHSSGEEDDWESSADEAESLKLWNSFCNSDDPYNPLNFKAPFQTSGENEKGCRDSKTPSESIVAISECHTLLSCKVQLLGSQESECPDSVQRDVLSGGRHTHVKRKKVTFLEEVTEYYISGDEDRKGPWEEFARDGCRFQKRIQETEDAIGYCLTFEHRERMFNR
PP1c, sequence (P36873 1-322): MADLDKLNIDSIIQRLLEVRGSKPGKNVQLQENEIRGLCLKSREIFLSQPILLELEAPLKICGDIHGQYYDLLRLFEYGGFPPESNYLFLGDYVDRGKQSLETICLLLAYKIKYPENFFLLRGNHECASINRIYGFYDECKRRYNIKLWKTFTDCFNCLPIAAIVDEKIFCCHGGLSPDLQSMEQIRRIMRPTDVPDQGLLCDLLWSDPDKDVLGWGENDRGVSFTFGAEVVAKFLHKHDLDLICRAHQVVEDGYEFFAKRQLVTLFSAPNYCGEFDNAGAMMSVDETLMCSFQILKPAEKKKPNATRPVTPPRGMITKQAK
R15A, sequence (O75807 whole entry, stated change not applied): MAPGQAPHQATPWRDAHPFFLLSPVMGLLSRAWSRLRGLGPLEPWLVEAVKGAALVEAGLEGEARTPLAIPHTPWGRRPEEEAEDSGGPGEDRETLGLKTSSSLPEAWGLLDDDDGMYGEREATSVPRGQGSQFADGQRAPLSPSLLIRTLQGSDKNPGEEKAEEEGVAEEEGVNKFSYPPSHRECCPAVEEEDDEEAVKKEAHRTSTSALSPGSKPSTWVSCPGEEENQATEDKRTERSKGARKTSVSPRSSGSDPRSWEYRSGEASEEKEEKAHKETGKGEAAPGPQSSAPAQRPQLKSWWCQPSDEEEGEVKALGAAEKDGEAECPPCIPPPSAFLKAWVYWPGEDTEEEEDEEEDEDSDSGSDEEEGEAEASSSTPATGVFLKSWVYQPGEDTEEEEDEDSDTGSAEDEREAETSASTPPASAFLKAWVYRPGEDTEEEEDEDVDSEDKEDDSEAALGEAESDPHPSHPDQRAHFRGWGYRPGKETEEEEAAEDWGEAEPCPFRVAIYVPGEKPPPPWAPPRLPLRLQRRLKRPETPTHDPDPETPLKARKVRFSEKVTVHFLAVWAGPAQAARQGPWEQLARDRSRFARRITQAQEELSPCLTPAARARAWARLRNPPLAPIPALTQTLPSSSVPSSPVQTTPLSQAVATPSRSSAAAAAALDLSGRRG
Description for PP1c: Residual activity of PP1c was measured using the EnzChek Phosphatase Assay Kit (ThermoFisher Scientific) according to the supplier’s instructions, with minor modifications.

In general, half-life refers to how long it takes for the measured level to halve. A low value points to rapid decline. With `[H]/N=C(\N)NN=Cc1cccc(Cl)c1Cl` [Raphin1, (E)-2-(2,3-dichlorobenzylidene)hydrazine-1-carboximidamide], in data set [1] (10 μM), the “ATF4 and R15A induction” value is “induced”; the “Stress marker BiP” value was “did not increase”. Further, in data set [1] (20 μM), the eIF2α phosphorylation result is “persistent phosphorylation”. Further, the eIF2α phosphorylation result in data set [1] (unstressed, 10 μM) is “rapidly and transiently increased”. The “Recruitment of eIF2α to R15B” value on R15B^340–698 is “decreased”. Besides, the half-life in data set [2] (male, C57BL/6J, brain, single oral dose 2 mg/kg) lay within 4 to 6 h. Also, the “Oral bioavailability (in words)” value in data set [2] is reported as “orally bioavailable”. In addition, in data set [2] (single oral dose 2 mg/kg), the Blood-brain barrier crossing result was “crossed the blood-brain barrier” and the “Peak concentration in the brain” value is ~1.5 µM. The “Adverse effects on weight gain” value in data set [3] is “no obvious adverse effects”. Besides, the “Time of translation recovery after administration” value in the data set with brains of wild-type mice (wild-type brains) was ~6 h. Further, the “Protein synthesis in the brains (in words)” value in the data set with brains of wild-type mice (wild-type mice) is “transiently reduced”. On R15A, the “R15A levels (decrease)” value was “not observed”. Also, the “Inhibition of PP1c (dephosphorylation of difluoro-4-methylumbelliferyl phosphate)” value at PP1c is recorded as “did not inhibit”.
